≈ marks a conversion by molar mass, not a printed value.
How the values were obtained:
Pseudomonas aeruginosa [1] = assay: Antibacterial activity against Carbapenem- sensitive Pseudomonas aeruginosa 17-30 assessed as reduction in bacterial growth; assay type: functional
Pseudomonas aeruginosa [2] = assay: Antibacterial activity against Pseudomonas aeruginosa ATCC 27853 assessed as reduction in bacterial growth in the presence of Avibactam; assay type: functional
Acinetobacter baumannii [3] = assay: Antibacterial activity against Carbapenem- resistant Acinetobacter baumannii 17-2 assessed as reduction in bacterial growth in the presence of Avibactam; assay type: functional
Acinetobacter baumannii [4] = assay: Antibacterial activity against Carbapenem- resistant Acinetobacter baumannii 17-6 assessed as reduction in bacterial growth in the presence of Avibactam; assay type: functional
Acinetobacter baumannii [5] = assay: Antibacterial activity against Carbapenem- resistant Acinetobacter baumannii 17-9 assessed as reduction in bacterial growth in the presence of Avibactam; assay type: functional
Acinetobacter baumannii [6] = assay: Antibacterial activity against Carbapenem- resistant Acinetobacter baumannii 17-11 assessed as reduction in bacterial growth in the presence of Avibactam; assay type: functional
Klebsiella pneumoniae [7] = assay: Antibacterial activity against ESBLs positive Carbapenem-sensitive Klebsiella pneumoniae 17-9 assessed as reduction in bacterial growth in the presence of Avibactam; assay type: functional
Escherichia coli [8] = assay: Antibacterial activity against ESBLs positive Carbapenem-sensitive Escherichia coli 17-11 assessed as reduction in bacterial growth in the presence of Avibactam; assay type: functional
Escherichia coli [9] = assay: Antibacterial activity against ESBLs positive Carbapenem-sensitive Escherichia coli 17-15 assessed as reduction in bacterial growth in the presence of Avibactam; assay type: functional
Escherichia coli [10] = assay: Antibacterial activity against ESBLs positive Carbapenem- sensitive Escherichia coli 17-17 assessed as reduction in bacterial growth in the presence of Avibactam; assay type: functional
Klebsiella aerogenes [11] = assay: Antibacterial activity against Enterobacter aerogenes 15-5 assessed as reduction in bacterial growth in the presence of Avibactam; assay type: functional
Pseudomonas aeruginosa [12] = assay: Antibacterial activity against Carbapenem- sensitive Pseudomonas aeruginosa 17-24 assessed as reduction in bacterial growth in the presence of Avibactam; assay type: functional
Escherichia coli [13] = assay: Bactericidal activity against ESBLs negative Carbapenem--sensitive Escherichia coli 17-7 assessed as reduction in bacterial growth; assay type: functional
Escherichia coli [14] = assay: Bactericidal activity against ESBLs positive Carbapenem-sensitive Escherichia coli 17-10 assessed as reduction in bacterial growth; assay type: functional
Enterobacter cloacae [15] = assay: Bactericidal activity against Enterobacter cloacae 17-8 assessed as reduction in bacterial growth; assay type: functional
Escherichia coli [16] = assay: Bactericidal activity against Escherichia coli ATCC 25922 assessed as reduction in bacterial growth; assay type: functional
Acinetobacter baumannii [17] = assay: Bactericidal activity against Acinetobacter baumannii NCTC 13304 assessed as reduction in bacterial growth; assay type: functional
Acinetobacter baumannii [18] = assay: Bactericidal activity against Carbapenem- resistant Acinetobacter baumannii 17-3 assessed as reduction in bacterial growth in the presence of avibactam; assay type: functional
Acinetobacter baumannii [19] = assay: Bactericidal activity against Carbapenem- resistant Acinetobacter baumannii 17-5 assessed as reduction in bacterial growth in the presence of avibactam; assay type: functional
Escherichia coli [20] = assay: Bactericidal activity against ESBLs negative carbapenem-sensitive Escherichia coli 17-7 assessed as reduction in bacterial growth in the presence of avibactam; assay type: functional
Escherichia coli [21] = assay: Bactericidal activity against ESBLs positive carbapenem-sensitive Escherichia coli 17-3 assessed as reduction in bacterial growth in the presence of avibactam; assay type: functional
Escherichia coli [22] = assay: Bactericidal activity against Escherichia coli NCTC 13353 assessed as reduction in bacterial growth in the presence of avibactam; assay type: functional
Klebsiella aerogenes [23] = assay: Antibacterial activity against Enterobacter aerogenes 17-4 assessed as reduction in bacterial growth
Pseudomonas aeruginosa [24] = assay: Antibacterial activity against Carbapenem- resistant Pseudomonas aeruginosa 17-1 assessed as reduction in bacterial growth
Klebsiella pneumoniae [25] = assay: Antibacterial activity against Carbapenem- resistant Klebsiella pneumoniae KR 15-5 assessed as reduction in bacterial growth
Klebsiella pneumoniae [26] = assay: Antibacterial activity against ESBLs positive Carbapenem-sensitive Klebsiella pneumoniae 17-10 assessed as reduction in bacterial growth in the presence of Avibactam; assay type: functional
Klebsiella pneumoniae [27] = assay: Antibacterial activity against ESBLs positive Carbapenem-sensitive Klebsiella pneumoniae 17-13 assessed as reduction in bacterial growth in the presence of Avibactam; assay type: functional
Escherichia coli [28] = assay: Antibacterial activity against ESBLs positive Carbapenem-sensitive Escherichia coli 17-3 assessed as reduction in bacterial growth in the presence of Avibactam; assay type: functional
Escherichia coli [29] = assay: Antibacterial activity against ESBLs negative Carbapenem-sensitive Escherichia coli 17-9 assessed as reduction in bacterial growth in the presence of Avibactam; assay type: functional
Escherichia coli [30] = assay: Antibacterial activity against ESBLs negative Carbapenem-sensitive Escherichia coli 17-20 assessed as reduction in bacterial growth in the presence of Avibactam; assay type: functional
Klebsiella aerogenes [31] = assay: Antibacterial activity against Enterobacter aerogenes 15-6 assessed as reduction in bacterial growth in the presence of Avibactam; assay type: functional
Pseudomonas aeruginosa [32] = assay: Antibacterial activity against Carbapenem- sensitive Pseudomonas aeruginosa 17-10 assessed as reduction in bacterial growth in the presence of Avibactam; assay type: functional
Escherichia coli [33] = assay: Ratio of MBC to MIC for ESBLs negative Carbapenem-sensitive Escherichia coli 17-20 assessed as reduction in bacterial growth; assay type: functional
Escherichia coli [34] = assay: Ratio of MBC to MIC for ESBLs positive Carbapenem-sensitive Escherichia coli 17-3 assessed as reduction in bacterial growth; assay type: functional
Enterobacter cloacae [35] = assay: Ratio of MBC to MIC for Enterobacter cloacae 17-10 assessed as reduction in bacterial growth; assay type: functional
Klebsiella aerogenes [36] = assay: Ratio of MBC to MIC for Enterobacter aerogenes 17-4 assessed as reduction in bacterial growth; assay type: functional
Klebsiella pneumoniae [37] = assay: Ratio of MBC to MIC for Klebsiella pneumoniae ATCC BAA-1705 assessed as reduction in bacterial growth; assay type: functional
Klebsiella pneumoniae [38] = assay: Ratio of MBC to MIC for ESBLs positive Carbapenem-sensitive Klebsiella pneumoniae 17-6 assessed as reduction in bacterial growth in the presence of Avibactam; assay type: functional
Klebsiella pneumoniae [39] = assay: Ratio of MBC to MIC for ESBLs positive Carbapenem-sensitive Klebsiella pneumoniae 17-12 assessed as reduction in bacterial growth in the presence of Avibactam; assay type: functional
Escherichia coli [40] = assay: Ratio of MBC to MIC for ESBLs negative carbapenem-negative Escherichia coli 17-7 assessed as reduction in bacterial growth in the presence of Avibactam; assay type: functional
Escherichia coli [41] = assay: Ratio of MBC to MIC for ESBLs negative carbapenem-negative Escherichia coli 17-20 assessed as reduction in bacterial growth in the presence of Avibactam; assay type: functional
Pseudomonas aeruginosa [42] = assay: Ratio of MBC to MIC for carbapenem-sensitive Pseudomonas aeruginosa 17-29 assessed as reduction in bacterial growth in the presence of Avibactam; assay type: functional
Escherichia coli [43] = assay: Ratio of MBC to MIC for Escherichia coli ATCC 25922 assessed as reduction in bacterial growth in the presence of Avibactam; assay type: functional
Pseudomonas aeruginosa [44] = assay: Ratio of MBC to MIC for Pseudomonas aeruginosa ATCC 27853 assessed as reduction in bacterial growth in the presence of Avibactam; assay type: functional
Klebsiella aerogenes [45] = assay: Antibacterial activity against Enterobacter aerogenes 17-3 assessed as reduction in bacterial growth

## C[C@@H](O)[C@H]1C(=O)N2C(C(=O)O)=C(S[C@@H]3CN[C@H](C(=O)N(C)C)C3)[C@H](C)[C@H]12 [MEROPENEM]
Pseudomonas aeruginosa [1]
  MIC: 2 mg/L (≈ 5.22 µM)

## CC(C)(O/N=C(\C(=O)N[C@@H]1C(=O)N2C(C(=O)[O-])=C(C[n+]3ccccc3)CS[C@H]12)c1csc(N)n1)C(=O)O [CEFTAZIDIME]
Pseudomonas aeruginosa [2]
  MIC: 0.5 mg/L
Acinetobacter baumannii [3]
  MIC: 8 mg/L
Acinetobacter baumannii [4]
  MIC: 8 mg/L
Acinetobacter baumannii [5]
  MIC: 8 mg/L
Acinetobacter baumannii [6]
  MIC: 8 mg/L
Klebsiella pneumoniae [7]
  MIC: 0.5 mg/L
Escherichia coli [8]
  MIC: 0.5 mg/L
Escherichia coli [9]
  MIC: 0.5 mg/L
Escherichia coli [10]
  MIC: 0.5 mg/L
Klebsiella aerogenes [11]
  MIC: 0.5 mg/L
Pseudomonas aeruginosa [12]
  MIC: 2 mg/L
Escherichia coli [13]
  MBC: 0.25 mg/L (≈ 0.457 µM)
Escherichia coli [14]
  MBC: 16 mg/L (≈ 29.3 µM)
Enterobacter cloacae [15]
  MBC: 1 mg/L (≈ 1.83 µM)
Escherichia coli [16]
  MBC: 0.5 mg/L (≈ 0.915 µM)
Acinetobacter baumannii [17]
  MBC: > 64 mg/L
Acinetobacter baumannii [18]
  MBC: 8 mg/L
Acinetobacter baumannii [19]
  MBC: 16 mg/L
Escherichia coli [20]
  MBC: 0.125 mg/L
Escherichia coli [21]
  MBC: 0.25 mg/L
Escherichia coli [22]
  MBC: 1 mg/L
Klebsiella aerogenes [23]
  MIC: 8 mg/L (≈ 14.6 µM)
Pseudomonas aeruginosa [24]
  MIC: 32 mg/L (≈ 58.5 µM)
Klebsiella pneumoniae [25]
  MIC: > 64 mg/L

## Nc1nc(/C(=N/OCc2cc(=O)c(O)cn2O)C(=O)N[C@@H]2C(=O)N3C(C(=O)O)=CCS[C@H]23)cs1
Pseudomonas aeruginosa [2]
  MIC: 1 mg/L
Acinetobacter baumannii [3]
  MIC: 16 mg/L
Acinetobacter baumannii [4]
  MIC: 16 mg/L
Acinetobacter baumannii [5]
  MIC: 16 mg/L
Acinetobacter baumannii [6]
  MIC: 8 mg/L
Klebsiella pneumoniae [7]
  MIC: 0.5 mg/L
Klebsiella pneumoniae [26]
  MIC: 1 mg/L
Klebsiella pneumoniae [27]
  MIC: ≤ 0.03 mg/L
Escherichia coli [28]
  MIC: 0.125 mg/L
Escherichia coli [8]
  MIC: 4 mg/L
Escherichia coli [9]
  MIC: 0.25 mg/L
Escherichia coli [10]
  MIC: 0.5 mg/L
Escherichia coli [29]
  MIC: 0.5 mg/L
Escherichia coli [30]
  MIC: 0.06 mg/L
Klebsiella aerogenes [11]
  MIC: 1 mg/L
Klebsiella aerogenes [31]
  MIC: 0.5 mg/L
Pseudomonas aeruginosa [32]
  MIC: 2 mg/L
Pseudomonas aeruginosa [12]
  MIC: 4 mg/L
Escherichia coli [13]
  MBC: 4 mg/L (≈ 7.87 µM)
Escherichia coli [16]
  MBC: > 8 mg/L
Acinetobacter baumannii [17]
  MBC: > 64 mg/L
Escherichia coli [33]
  Ratio: >8
Escherichia coli [34]
  Ratio: 1
Enterobacter cloacae [35]
  Ratio: >8
Klebsiella aerogenes [36]
  Ratio: 2
Klebsiella pneumoniae [37]
  Ratio: >1
Acinetobacter baumannii [18]
  MBC: 16 mg/L
Acinetobacter baumannii [19]
  MBC: 16 mg/L
Escherichia coli [20]
  MBC: 1 mg/L
Escherichia coli [21]
  MBC: 0.25 mg/L
Escherichia coli [22]
  MBC: 0.5 mg/L
Klebsiella pneumoniae [38]
  Ratio: 2
Klebsiella pneumoniae [39]
  Ratio: 1
Escherichia coli [40]
  Ratio: 2
Escherichia coli [41]
  Ratio: >16
Pseudomonas aeruginosa [42]
  Ratio: 8
Escherichia coli [43]
  Ratio: 2
Pseudomonas aeruginosa [44]
  Ratio: 4
Pseudomonas aeruginosa [1]
  MIC: 1 mg/L (≈ 1.97 µM)
Klebsiella aerogenes [45]
  MIC: 2 mg/L (≈ 3.93 µM)
Klebsiella pneumoniae [25]
  MIC: > 64 mg/L

Source: ChEMBL document CHEMBL4813981, “Synthesis and in vitro antibacterial activity of new aminothiazole-oximepiperidone cephalosporins” (2021)
